Measured values: ChEMBL document CHEMBL1126853, “A series of penicillin-derived C2-symmetric inhibitors of HIV-1 proteinase: structural and modeling studies” (J Med Chem, 1993)

Each compound was assayed against Human immunodeficiency virus type 1 protease (Human immunodeficiency virus 1, UniProt Q72874) (assay: Inhibitory activity against HIV-1 Protease).

Question: Which IC50 does the source give for `CC1(C)S[C@H]([C@H](NC(=O)Cc2ccccc2)C(=O)NCc2ccccc2)NC1C(=O)NCC(O)CNC(=O)[C@@H]1N[C@@H]([C@H](NC(=O)Cc2ccccc2)C(=O)NCc2ccccc2)SC1(C)C` (some centres not stated) here?
Answer: The IC50 was 5 nM.

Question: For `CC1(C)S[C@H]([C@H](NC(=O)Cc2ccccc2)C(=O)NCc2ccccc2)NC1C(=O)NCCCNC(=O)[C@@H]1N[C@@H]([C@H](NC(=O)Cc2ccccc2)C(=O)NCc2ccccc2)SC1(C)C` (some centres not stated), which IC50 is on record?
Answer: The IC50 was 540 nM.

Question: Which IC50 does the source give for `CCNC(=O)[C@@H](NC(=O)c1ccccc1-c1ccccc1)[C@@H]1NC(C(=O)NCCNC(=O)[C@@H]2N[C@@H]([C@H](NC(=O)c3ccccc3-c3ccccc3)C(=O)NCC)SC2(C)C)C(C)(C)S1` (some centres not stated) here?
Answer: The IC50 was 9.9 nM.

Question: `CCNC(=O)[C@@H](NC(=O)Cc1ccccc1)[C@@H]1NC(C(=O)NCCNC(=O)[C@@H]2N[C@@H]([C@H](NC(=O)Cc3ccccc3)C(=O)NCC)SC2(C)C)C(C)(C)S1` (some centres not stated) was tested. Which IC50 did it give?
Answer: Its IC50 is 3 nM.

Question: For `CC1(C)S[C@H]([C@H](NC(=O)Cc2ccccc2)C(=O)NCC(F)(F)F)NC1C(=O)NCCNC(=O)[C@@H]1N[C@@H]([C@H](NC(=O)Cc2ccccc2)C(=O)NCC(F)(F)F)SC1(C)C` (some centres not stated), which IC50 is on record?
Answer: Its IC50 is 4.4 nM.

Question: With `CCNC(=O)[C@@H](NC(=O)c1c(-c2ccccc2)noc1C)[C@@H]1NC(C(=O)NCCNC(=O)[C@@H]2N[C@@H]([C@H](NC(=O)c3c(-c4ccccc4)noc3C)C(=O)NCC)SC2(C)C)C(C)(C)S1` (some centres not stated) as the compound, how does the IC50 read?
Answer: Its IC50 is 5.4 nM.

Question: Which IC50 does the source give for `CCNC(=O)[C@@H](NC(=O)c1ccccc1)[C@@H]1NC(C(=O)NCCNC(=O)[C@@H]2N[C@@H]([C@H](NC(=O)c3ccccc3)C(=O)NCC)SC2(C)C)C(C)(C)S1` (some centres not stated) here?
Answer: The IC50 was 390 nM.
